From patent publication US20210007356A1, “IMIDE DERIVATIVE AND FUNGICIDE CONTAINING SAID DERIVATIVE AS ACTIVE INGREDIENT” (HOKKO CHEMICAL INDUSTRY CO., LTD., priority 2018, published 2021)
Like-named read-outs stand apart in the source and are kept apart here.

Experiments:
[1] = test system: barley powdery mildew fungus (Erysiphe graminis); experiment: Test Example 2: control effect against barley powdery mildew by foliage application; assay type: in vivo; settings: wettable powder diluted to 100 ppm, 10 mL per pot foliage spray on barley; inoculated day after; 7 days after inoculation
[2] = test system: rice blast fungus (Pyricularia grisea); assay type: in vivo; settings: flowable 5,000 ppm, 50 mL irrigation of nursery box, paddy rice; inoculated after 3 weeks; 7 days after inoculation
[3] = test system: rice blast fungus (Pyricularia grisea); assay type: in vivo; settings: 5 g of granule on nursery box, paddy rice; inoculated after 3 weeks; 7 days after inoculation
[4] = test system: rice blast fungus (Pyricularia grisea); assay type: in vivo; settings: flowable 1,000 ppm, 1 mL dripped in paddy water, inoculated after 1 week, 7 days after inoculation
[5] = test system: rice sheath blight fungus (Thanatephorus cucumeris); experiment: Test Example 8: control effect against rice sheath blight by box treatment (granule); settings: 5 g of granule on nursery box, paddy rice; inoculated after 3 weeks; 7 days after inoculation
[6] = test system: rice sheath blight fungus (Thanatephorus cucumeris); experiment: Test Example 6: control effect against rice sheath blight by box treatment (flowable formulation); settings: flowable 5,000 ppm, 50 mL irrigation of nursery box, paddy rice; inoculated after 3 weeks; 7 days after inoculation
[7] = test system: rice sheath blight fungus (Thanatephorus cucumeris); experiment: Test Example 10: control effect against rice sheath blight by water surface application (flowable formulation); settings: flowable 1,000 ppm, 1 mL dripped in paddy water, inoculated after 1 week, 7 days after inoculation

Cc1nc(C(F)F)c(C(=O)N(C(=O)c2cn(C)nc2C(F)F)c2ccccc2C(C)CC(C)C)s1 (stereo not shown) [1-314]
evaluation value of control effect (from control value, lesion area percentage) [1]: 4
evaluation value of control effect (from control value, number of lesions) [2]: 5
evaluation value of control effect (from control value, number of lesions) [3]: 5
evaluation value of control effect (from control value, number of lesions) [4]: 5
evaluation value of control effect (from control value, lesion height) [5]: 5
evaluation value of control effect (from control value, lesion height) [6]: 5
evaluation value of control effect (from control value, lesion height) [7]: 5

Cc1nc(C(F)F)c(C(=O)N(C(=O)c2cc(Cl)no2)c2cccc3c2C(C)OC3(C)C)s1 (stereo not shown) [26-91]
evaluation value of control effect (from control value, lesion area percentage) [1]: 4
evaluation value of control effect (from control value, number of lesions) [2]: 5
evaluation value of control effect (from control value, number of lesions) [3]: 5
evaluation value of control effect (from control value, number of lesions) [4]: 5
evaluation value of control effect (from control value, lesion height) [5]: 5
evaluation value of control effect (from control value, lesion height) [6]: 5
evaluation value of control effect (from control value, lesion height) [7]: 5

Cc1nc(C(F)F)c(C(=O)N(C(=O)c2snc(Cl)c2Cl)c2ccccc2CCC(C)C)s1 [7-37]
evaluation value of control effect (from control value, lesion area percentage) [1]: 4
evaluation value of control effect (from control value, number of lesions) [2]: 5
evaluation value of control effect (from control value, number of lesions) [3]: 5
evaluation value of control effect (from control value, number of lesions) [4]: 5
evaluation value of control effect (from control value, lesion height) [5]: 5
evaluation value of control effect (from control value, lesion height) [6]: 5
evaluation value of control effect (from control value, lesion height) [7]: 5

CC(C)CC(C)c1ccccc1N(C(=O)c1cccnc1Cl)C(=O)c1snc(Cl)c1Cl (stereo not shown) [13-53]
evaluation value of control effect (from control value, lesion area percentage) [1]: 4
evaluation value of control effect (from control value, number of lesions) [2]: 5
evaluation value of control effect (from control value, number of lesions) [3]: 5
evaluation value of control effect (from control value, number of lesions) [4]: 5
evaluation value of control effect (from control value, lesion height) [5]: 5
evaluation value of control effect (from control value, lesion height) [6]: 5
evaluation value of control effect (from control value, lesion height) [7]: 5

Cc1nc(C(F)(F)F)c(C(=O)N(C(=O)c2snnc2C(F)F)c2c(Br)cc(OC(F)(F)F)cc2Br)s1 [7-281]
evaluation value of control effect (from control value, lesion area percentage) [1]: 4
evaluation value of control effect (from control value, number of lesions) [2]: 5
evaluation value of control effect (from control value, number of lesions) [3]: 5
evaluation value of control effect (from control value, number of lesions) [4]: 5
evaluation value of control effect (from control value, lesion height) [5]: 5
evaluation value of control effect (from control value, lesion height) [6]: 5
evaluation value of control effect (from control value, lesion height) [7]: 5

Cc1nc(C(F)F)c(C(=O)N(C(=O)c2snnc2C(F)F)c2ccccc2C(C)CC(C)C)s1 (stereo not shown) [7-176]
evaluation value of control effect (from control value, lesion area percentage) [1]: 5
evaluation value of control effect (from control value, number of lesions) [2]: 5
evaluation value of control effect (from control value, number of lesions) [3]: 5
evaluation value of control effect (from control value, number of lesions) [4]: 5
evaluation value of control effect (from control value, lesion height) [5]: 5
evaluation value of control effect (from control value, lesion height) [6]: 5
evaluation value of control effect (from control value, lesion height) [7]: 5

CC(C)CC(C)c1ccccc1N(C(=O)c1cccnc1C(F)F)C(=O)c1onc(Cl)c1Cl (stereo not shown) [13-49]
evaluation value of control effect (from control value, lesion area percentage) [1]: 5
evaluation value of control effect (from control value, number of lesions) [2]: 5
evaluation value of control effect (from control value, number of lesions) [3]: 5
evaluation value of control effect (from control value, number of lesions) [4]: 5
evaluation value of control effect (from control value, lesion height) [5]: 5
evaluation value of control effect (from control value, lesion height) [6]: 5
evaluation value of control effect (from control value, lesion height) [7]: 5

Cc1nnsc1C(=O)N(C(=O)c1cn(C)nc1C(F)F)c1ccccc1CCC(C)C [1-145]
evaluation value of control effect (from control value, lesion area percentage) [1]: 5
evaluation value of control effect (from control value, number of lesions) [2]: 5
evaluation value of control effect (from control value, number of lesions) [3]: 5
evaluation value of control effect (from control value, number of lesions) [4]: 5
evaluation value of control effect (from control value, lesion height) [5]: 5
evaluation value of control effect (from control value, lesion height) [6]: 5
evaluation value of control effect (from control value, lesion height) [7]: 5

Cc1nc(C(F)F)c(C(=O)N(C(=O)c2cc(Cl)c(Cl)s2)c2ccccc2C(C)CC(C)C)s1 (stereo not shown) [7-274]
evaluation value of control effect (from control value, lesion area percentage) [1]: 4
evaluation value of control effect (from control value, number of lesions) [2]: 5
evaluation value of control effect (from control value, number of lesions) [3]: 5
evaluation value of control effect (from control value, number of lesions) [4]: 5
evaluation value of control effect (from control value, lesion height) [5]: 5
evaluation value of control effect (from control value, lesion height) [6]: 5
evaluation value of control effect (from control value, lesion height) [7]: 5

CC1OC(C)(C)c2cccc(N(C(=O)c3cn(C)nc3C(F)F)C(=O)c3snc(Cl)c3Cl)c21 (stereo not shown) [25-10]
evaluation value of control effect (from control value, lesion area percentage) [1]: 4
evaluation value of control effect (from control value, number of lesions) [2]: 5
evaluation value of control effect (from control value, number of lesions) [3]: 5
evaluation value of control effect (from control value, number of lesions) [4]: 5
evaluation value of control effect (from control value, lesion height) [5]: 5
evaluation value of control effect (from control value, lesion height) [6]: 5
evaluation value of control effect (from control value, lesion height) [7]: 5

Cc1nc(C(F)F)c(C(=O)N(C(=O)c2cc(Cl)nc(Cl)c2)c2ccccc2C(C)CC(C)C)s1 (stereo not shown) [7-188]
evaluation value of control effect (from control value, lesion area percentage) [1]: 4
evaluation value of control effect (from control value, number of lesions) [2]: 5
evaluation value of control effect (from control value, number of lesions) [3]: 5
evaluation value of control effect (from control value, number of lesions) [4]: 5
evaluation value of control effect (from control value, lesion height) [5]: 5
evaluation value of control effect (from control value, lesion height) [6]: 5
evaluation value of control effect (from control value, lesion height) [7]: 5

Cn1cc(C(=O)N(C(=O)c2cc(Cl)nc(Cl)c2)c2ccccc2-c2cc(F)c(F)c(F)c2)c(C(F)F)n1 [1-375]
evaluation value of control effect (from control value, lesion area percentage) [1]: 4
evaluation value of control effect (from control value, number of lesions) [2]: 5
evaluation value of control effect (from control value, number of lesions) [3]: 5
evaluation value of control effect (from control value, number of lesions) [4]: 5
evaluation value of control effect (from control value, lesion height) [5]: 5
evaluation value of control effect (from control value, lesion height) [6]: 5
evaluation value of control effect (from control value, lesion height) [7]: 5

Cc1ncc(C(=O)N(C(=O)c2cc(Cl)no2)c2ccccc2C(C)CC(C)C)s1 (stereo not shown) [7-278]
evaluation value of control effect (from control value, lesion area percentage) [1]: 4
evaluation value of control effect (from control value, number of lesions) [2]: 5
evaluation value of control effect (from control value, number of lesions) [3]: 5
evaluation value of control effect (from control value, number of lesions) [4]: 5
evaluation value of control effect (from control value, lesion height) [5]: 5
evaluation value of control effect (from control value, lesion height) [6]: 5
evaluation value of control effect (from control value, lesion height) [7]: 5

Cc1nc(C(F)(F)F)c(C(=O)N(C(=O)c2snnc2C)c2c(Br)cc(OC(F)(F)F)cc2Br)s1 [7-280]
evaluation value of control effect (from control value, lesion area percentage) [1]: 4
evaluation value of control effect (from control value, number of lesions) [2]: 5
evaluation value of control effect (from control value, number of lesions) [3]: 5
evaluation value of control effect (from control value, number of lesions) [4]: 5
evaluation value of control effect (from control value, lesion height) [5]: 5
evaluation value of control effect (from control value, lesion height) [6]: 5
evaluation value of control effect (from control value, lesion height) [7]: 5

Cc1nc(C(F)F)c(C(=O)N(C(=O)c2snc(Cl)c2Cl)c2cccc3c2C(C)OC3(C)C)s1 (stereo not shown) [26-14]
evaluation value of control effect (from control value, lesion area percentage) [1]: 4
evaluation value of control effect (from control value, number of lesions) [2]: 5
evaluation value of control effect (from control value, number of lesions) [3]: 5
evaluation value of control effect (from control value, number of lesions) [4]: 5
evaluation value of control effect (from control value, lesion height) [5]: 5
evaluation value of control effect (from control value, lesion height) [6]: 5
evaluation value of control effect (from control value, lesion height) [7]: 5

Cc1nc(C(F)F)c(C(=O)N(C(=O)c2sc(C)nc2C(F)F)c2ccccc2CCC(C)C)s1 [7-237]
evaluation value of control effect (from control value, lesion area percentage) [1]: 4
evaluation value of control effect (from control value, number of lesions) [2]: 5
evaluation value of control effect (from control value, number of lesions) [3]: 5
evaluation value of control effect (from control value, number of lesions) [4]: 5
evaluation value of control effect (from control value, lesion height) [5]: 5
evaluation value of control effect (from control value, lesion height) [6]: 5
evaluation value of control effect (from control value, lesion height) [7]: 5
